Data published in US20210252022A1, “COMPOSITION FOR THE PREVENTION OR THE TREATMENT OF VISUAL IMPAIRMENTS COMPRISING URSODEOXYCHOLIC ACID” (AMICOGEN PHARMA INC., priority 2017, published 2021).
Entries after “also recorded” stand apart in the source; their conditions may differ. Where two headings read alike, the source gives them in different places.

Legend:
[1] = cited from earlier work
[2] = crystalline form, cited from earlier work
[3] = cited from earlier work; remark: listed apart in the source
[4] = DMSO/PBS (pH 7.2) solution; cited from earlier work
function of the retina = tested on: function of the retina; parameters: species or system C57 BL/6 mice; details: mouse, in vivo
Method: 5) After C57 BL/6 mice (Orient Bio, Korea) were acclimatized to be adapted to the environment for 1 week, 7-week old mice were treated with the image-guided laser (Phoenix, USA) especially optic nerve area at 3, 6, 9, and 12 o'clock positions. The laser was irradiated at 532 nm, 100 ms/70 ms, 200 mW, and a spot size was 50 μm.
The mice were dark adapted for 24 hours before test and all tests were performed in a darkroom. The eyes of mice were dilated and general anesthetized by intraperitoneal injection with a mixture of ketamine (30 mg/kg) and xylazine hydrochloride (2.5 mg/kg) in order to detect the function of the retina. Electrodes were placed in skin, tail and cornea to run electroretinography. […] The amplitude from the trough of A-wave to the peak of B-wave was measured and evaluated as an index of the function of the retina. […]
FIG. 9A-FIG. 9F are the test results that measured the response degree of retina to the white light after dark adaptation of group with intravitreal injection at day 15 after laser injury.
The dose of each individual was calculated based on the body weight measured immediately prior to administration and then orally administered using a disposable syringe equipped with sonde. […]
FIG. 14A-FIG. 14E are the test results that measured the response degree of retina to the white light after dark adaptation of group with oral administration at day 14 after laser injury.

[5] = tested on: laser-induced choroidal neovascularization (CNV); test: Optical coherence tomography (OCT) in laser-induced CNV mouse model; format: in vivo, C57 BL/6 mice; details: intravitreal injection, day 14 after laser injury, vs PBS
[6] = tested on: laser-induced choroidal neovascularization (CNV); test: Fundus fluorescein angiography (FFA) in laser-induced CNV mouse model; format: in vivo, C57 BL/6 mice; details: intravitreal injection 2 μl per eyeball, 14 days after laser injury, vs PBS
[7] = tested on: vascular endothelial growth factor (VEGF); test: Western blot analysis of VEGF expression in the choroid and the retina; format: in vivo, C57 BL/6 mice; details: intravitreal administration, day 15 after laser injury
[8] = tested on: wet (age-related) macular degeneration; details: in vivo; cited from earlier work

Molecule: C[C@H](CCC(=O)O)[C@H]1CC[C@H]2[C@@H]3[C@@H](O)C[C@@H]4C[C@H](O)CC[C@]4(C)[C@H]3CC[C@]12C [UDCA, ursodeoxycholic acid]
- solubility in water [1]: 20 µg/mL
- solubility in water ([1]; protonated form): 53 µM
- acid dissociation constant, pKa [2]: about 5.0
- acid dissociation constant, pKa ([2]; listed as ursodeoxycholic acid): 5.1
- absorbed at the ileum of the colon by the active transport mechanism ([3]; oral tablet or capsule, crystalline form): up to 20 % of intakes
- absorbed along the jejunum and ileum by nonionic passive diffusion ([3]; oral tablet or capsule): 30-60%
- absorbed to the liver through the small intestine ([3]; taken orally): ≥ 95%

Molecule: C[C@H](CCC(=O)NCCS(=O)(=O)O)[C@H]1CC[C@H]2[C@@H]3[C@@H](O)C[C@@H]4C[C@H](O)CC[C@]4(C)[C@H]3CC[C@]12C [tUDCA, tauroursodeoxycholic acid]
- time the stability of the solution can be maintained [4]: about 1 day
- solubility in water [1]: 200 µg/mL
- solubility ([1]; first dissolved in DMSO, then mixed with PBS (pH 7.2) 1:4): up to 200 mg/l
- pH (strong acidity) [2]: ≤ 1

Molecule: Eylea®: conventional VEGF antibody drug, positive control, intravitreal injection
- ERG response (function of the retina): increased
- size of CNV lesions (OCT) [5]: statistically significantly inhibited
- choroidal neovascularization (FFA, corrected total fluorescence) [6]: statistically significantly inhibited
- expression of VEGF in the choroid and the retina [7]: decreased; also recorded: less compared to that of YSB201

B1: Lucentis®: antibody drug inhibiting the activity of VEGF, intravitreal injection once every four weeks (antibody, chains of the INN, looked up, V domains shown)
VH: EVQLVESGGGLVQPGGSLRLSCAASGYDFTHYGMNWVRQAPGKGLEWVGWINTYTGEPTYAADFKRRFTFSLDTSKSTAYLQMNSLRAEDTAVYYCAKYPYYYGTSHWYFDVWGQGTLVTVSS
VL: DIQLTQSPSSLSASVGDRVTITCSASQDISNYLNWYQQKPGKAPKVLIYFTSSLHSGVPSRFSGSGSGTDFTLTISSLQPEDFATYYCQQYSTVPWTFGQGTKVEIK
modifications: Fab
- vision improvement rate [8]: 40%
- vision maintenance effect [8]: 90%
